Reference: patent US20220403048A1, “BINDING MOLECULES TO ARGINASE II [ARG2]” (Cancer Research Technology Limited, priority 2019, published 2022)
Changes are numbered by the printed parent chain. Read-outs that look alike come from different tables or passages of the source. Marks after values point to notes of the source that are not given here.

Key:
both ARG isoforms = settings: cited from earlier work; for Kd: both ARG isoforms at physiologic pH, read-out: binding constant (KD)
monomeric ARG2 = biological target: T1, monomeric ARG2 (Homo sapiens, UniProt P78540, E275Q); assay: Human monomeric ARG2 enzyme inhibition assay; type: biochemical; settings: purified recombinant human IgG1, FIG. 5
T1 construct: human ARG2 (aa23-354); His10 (C); made in house; host or cells: E. coli
T1 sequence (P78540 23-354 E275Q): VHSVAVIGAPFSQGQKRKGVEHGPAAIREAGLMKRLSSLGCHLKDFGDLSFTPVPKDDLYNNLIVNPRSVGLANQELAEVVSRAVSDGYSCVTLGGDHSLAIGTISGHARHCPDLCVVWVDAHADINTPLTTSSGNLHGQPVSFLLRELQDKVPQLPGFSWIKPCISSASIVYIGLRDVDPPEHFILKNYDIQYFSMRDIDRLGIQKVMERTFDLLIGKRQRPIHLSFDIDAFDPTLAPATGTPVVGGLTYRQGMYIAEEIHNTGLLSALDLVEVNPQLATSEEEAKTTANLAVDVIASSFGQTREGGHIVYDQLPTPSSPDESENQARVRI
Method: ARG2 specific recombinant IgG1 were screened for their ability to inhibit enzymatic activity of monomeric ARG2. In this assay, the ability of ARG2 specific recombinant IgG1 to inhibit the enzymatic activity of monomeric ARG2 was determined by measuring the production of urea, the product of L-arginine turnover by monomeric ARG2.
IC50 values were determined by testing a dilution series of the ARG2 specific recombinant IgG1, prepared in TBS.
10 μl of ARG2 specific recombinant IgG1 (dilution series) were added to a Greiner Bio-One® 384 well assay plate (Greiner Bio-one, UK; cat: 781901). […]
(§1) Urea was detected by the simultaneous addition of equal volumes of O-Phthaldialdehyde (1.5 mM O-Phthaldialdehyde, 7% H2SO4, 0.03% Brij L23) and N-(1-Napthyl)ethylenediamine (1.66 mM N-(1-Napthyl)ethylenediamine, 81 mM Boric acid, 21% H2SO4, 0.03% Brij L23) followed by an 18 minute incubation at room temperature before the colorimetric product was quantified on the Pherastar by measuring absorbance at 505 nm.
ARG2 specific recombinant IgG1 were tested alongside N-Hydroxyl-L-Arginine (a small molecule competitive inhibitor of ARG2) as a positive control and NIP228 (irrelevant isotype control antibody) as a negative control. Data points were plotted and IC50 values determined using a four parameter fit in GraphPad Prism (FIG. 5).

ARG2 [1] = biological target: T2, ARG2 (Homo sapiens, UniProt P78540); assay: T cell proliferation assay (BrdU, 72 hours) with exogenous ARG2; type: cell-based; settings: In Absence of rhARG2
T2 sequence (P78540 23-354): T1 sequence (P78540 23-354 E275Q) with Q253E
Method: (§2) This assay served to provide in vitro evidence of functional efficacy for each antibody.
(§3) Briefly, Leukocyte cones (NHS Blood and Transplant, Watford, UK) underwent Ficoll Plaque (GE, Sweden; Cat: 17-1440-02) gradient separation, PBMC's were extracted and pan T cell population isolated by negative selection using the Human T Cell Enrichment Kit (Stemcell Technologies, France; Cat: 19051) according to the manufacturer's instructions.
(§4) 40000 cells/well were seeded in complete growth media (RMPI 1640, 5% Human Serum Albumin) into a 96 well clear TC treated microplate (Greiner-Bio One, Germany; Cat: 655180). T Cells were activated by the addition of ImmunoCult CD3/CD28 (Stemcell Technologies, France; Cat: 10971) at a dilution of 1:40 directly into wells and the plate incubated 37° C., 5% CO2 for 45 minutes.
(§5) To determine EC50's of test antibodies, a dilution series was created in sterile TBS at 8× the final assay concentration was added to the assay plate containing cells. Plate was incubated for 30 minutes at 37° C., 5% CO2.
(§6) ARG2 was added to relevant wells of the plate at a final concentration of 15 μg/ml. The equivalent volume of ARG2 vehicle and test antibody vehicle was added to relevant control wells. […]
(§7) Calculated data was expressed as % of control (Equation 3) and graphical plots were constructed using a four parameter fit and EC50's determined using model 205 in XLFit (IDBS, UK). […]

trimeric human ARG2 = biological target: T3, trimeric human ARG2 (Homo sapiens, UniProt P78540); assay: Human trimeric ARG2 enzyme inhibition assay (urea production); type: biochemical
T3 construct: human ARG2 (aa23-354); His10 (C); made in house; host or cells: E. coli BL21 (DE3)
T3 sequence (P78540 23-354): T1 sequence (P78540 23-354 E275Q) with Q253E
Method: Unpurified anti-ARG2 scFv fragments from periplasmic preparations were screened in an ARG2 enzyme inhibition assay using a Pherastar plate reader (BMG Labtech, Germany). In this assay, the ability of unpurified scFv to inhibit the enzymatic activity of trimeric ARG2 was determined by measuring the production of urea, the product of L-arginine turnover by ARG2.
Selection outputs were screened as unpurified bacterial periplasmic extracts containing scFv, prepared in 200 mM TES buffer pH 7.4, 0.5 mM EDTA and 0.5 M sucrose. 10 μl of unpurified scFv were added to a Greiner Bio-One® 384 well assay plate (Greiner Bio-one, UK; cat: 781901). […]
as §1, with “nm. […]” for “nm.”
Data were analysed by calculating % maximum (max) control for each sample using the 505 nm absorbance data. % max control was determined according to equation 2. […]
Data were again analysed by calculating % Max control values for each sample. […]

[2] = biological target: T4, THP-1 lysate derived human trimeric ARG2 (Homo sapiens, UniProt P78540); assay: THP-1 lysate derived human ARG2 enzyme inhibition assay; type: biochemical
T4 construct: expressed in transfected cells; host or cells: THP-1 cells overexpressing human ARG2 (cell lysate)
T4 sequence (P78540 23-354): T1 sequence (P78540 23-354 E275Q) with Q253E
Method: Anti-ARG2 IgGs were tested for their ability to inhibit mammalian expressed human ARG2 produced in transfected THP-1 cells. To do this cell lysates were prepared from THP-1 cells overexpressing human ARG2 and from wild type THP-1 cells. 350 million cells were suspended in 3 ml tris buffered saline (25 mM Tris+150 mM sodium chloride in dH2O, pH 7.4) and cell lysates prepared by passing through a 26G needle 20 times. A BCA assay was used to measure the protein concentration in the lysate. […] Antibodies were tested alongside N-Hydroxyl-L-Arginine (a small molecule competitive inhibitor of ARG2) as a positive control and CEA6 (irrelevant isotype control antibody) as a negative control. Data points were plotted and IC50 values determined using a four parameter fit in GraphPad Prism (FIG. 11, Table 13).
Anti-ARG2 IgGs were tested for their ability to inhibit to mammalian expressed human ARG2 produced in transfected THP-1 cells. […] Urea detection reagents, O-Phthaldialdehyde (1.5 mM O-Phthaldialdehyde, 7% H2SO4, 0.03% Brij L23) and N-(1-Napthyl)ethylenediamine (1.66 mM N-(1-Napthyl)ethylenediamine, 81 mM Boric acid, 21% H2SO4, 0.03% Brij L23) were mixed 1:1 just prior to use and 80 μl/well were added, incubated for 1 hour at room temperature and absorbance at 505 nm was read on a Pherastar plate reader. […]

ARG2 [3] = biological target: T2, ARG2; assay: T cell proliferation assay (BrdU, 72 hours) with exogenous ARG2; type: cell-based; set-up: human ARG2 (aa23-354); His10 (C); made in house; host or cells: E. coli BL21 (DE3); settings: In Presence of rhARG2, NHLA value at 0.444 mM
Method: as §2, §3, §4, §5, §6, §7

In the case of N[C@@H](CSCCB(O)O)C(=O)O [BEC, S-(2-boronoethyl)-L-cysteine], the Kd (both ARG isoforms) is listed as about 300 nM.

In the case of N[C@@H](CCCCB(O)O)C(=O)O [ABH, 2(S)-amino-6-boronohexanoic acid], the Kd (both ARG isoforms) is listed as about 300 nM.

For NC(=NO)NCCC[C@H](N)C(=O)O [NHLA, NG-Hydroxy-L-arginine, reference compound], the “inhibition of the activity of human monomeric ARG2” value (monomeric ARG2) was “able to inhibit”, the EC50 (ARG2 [1]) was under 1800 nM and the “Maximum % Proliferation” value (ARG2 [1]) was 80%. For the same compound, the “inhibition of the activity of human trimeric ARG2” value (trimeric human ARG2; purified recombinant human IgG1, FIG. 3) was “able to inhibit”, the “inhibition of the activity of human trimeric ARG2” value (trimeric human ARG2; purified scFv, FIG. 2) was “able to inhibit” and the IC50 ([2]; methods of section 2.8, FIG. 16, read-out: THP-1 ARG2 EIA IC50) was 12900 nM. The IC50 ([2]; recombinant human IgG1, lysate without plasma (section 3.3), FIG. 13, read-out: THP-1 lysate ARG2 EIA IC50) was 4750 nM and the “Maximum % Proliferation” value (ARG2 [3]) was 49* %.

In the case of N=C(N)NCCC[C@H](N)C(=O)O [L-arginine], the Km (both ARG isoforms; natural substrate of arginase) is given as 5 mM.
